The text below walks through data of PMC7566913, “Dual Gene Delivery Reagents From Antiproliferative Alkylphospholipids for Combined Antitumor Therapy” (Frontiers in Chemistry, 2020).

For one experiment, the system named is H292 cells. As to the kind of experiment: Antiproliferative effect of pUNO1-hTRAIL vs pCMV-Gluc lipoplexes, MTT, H292. It counts as cell-based, human. To be noted: N/P 3, 1 eq. DOPE. Here is the method: Cells were treated with lipoplexes prepared from pro-APLs ME12, PE12, and EE12, with increasing dose of pDNA (0.1–0.4 μg per well). The gold standard gene delivery reagent Lipofectamine® 2000 was assayed in parallel for comparison purpose. In order to distinguish the intrinsic cytotoxic effect of the in situ generated APLs from that resulting from TRAIL expression, pCMV-Gluc was assayed in parallel to pUNO1-hTRAIL. Using pCMV-Gluc, the observed cytotoxicity was assumed to result only from the APL antiproliferative activity, whereas results obtained with pUNO1-hTRAIL are a combination of TRAIL activity and APL antiproliferative effect. […] Though the temptation is to take it as an indicator that functional TRAIL was produced, the difference found was not always statistically significant. The activity profile of the three pro-APLs varied according to the cell line. […]
Figure 8 Antiproliferative effect of lipoplexes prepared from ME12 (A), PE12 (B), EE12 (C), and the two DNA plasmids pCMV-Gluc (light bars) and pUNO1-hTRAIL (dark bars), on the three cell lines. […] Lipofectamine®-based lipoplexes (0.1 μg plasmid/well) were prepared according to the optimized experimental conditions determined following the supplier's instructions. Cell viability was measured by the MTT assay. Basal mitochondrial activity measured in untreated cells is set at 100%. […]

A further experiment concerns 16HBE cells. The experiment in a line: Cytotoxicity, MTT assay, 16HBE. It is filed as cell-based, human. As to conditions: Homo sapiens, 24 h at 37°C.

As usually defined, the IC50 is the concentration that gives 50% inhibition. On to `CCCCCCCCCCCCCCCCCCOP(=O)(OCOC(=O)CCCCCCCCCCC)OC1CC[N+](C)(C)CC1.[Cl-]` (centres unmarked) [PE12, 4-((((Dodecanoyloxy)methoxy)(octadecyloxy)phosphoryl)oxy)-1,1-dimethylpiperidin-1-ium chloride], for which the “Cell death specifically induced by TRAIL” value in the experiment on H292 cells is “ca. 45%”. For the same compound, the IC50 with 16HBE cells came to 231 ± 70 µM.
